The results in this text go back to US20250346593A1, “IMIDAZO(1,2-1)PYRIDINE DERIVATIVES AS RIPK2 INHIBITORS” (Interline Therapeutics, Inc., priority 2022, published 2025).

Like-named read-outs stand apart in the source and are kept apart here. Some results are limits rather than exact numbers.

Test [1] concerns NF-κB pathway (SEAP) in THP1-Dual cells. As to the kind of experiment: THP-1 Dual cell SEAP assay (L18-MDP stimulated). The test is classed as cell-based. To be noted: Homo sapiens, THP1-Dual, read-out: NFkB THP1 IC50.
The target in test [2] is GST-RIPK2 fusion protein (human RIPK2 amino acids 1-310) (Homo sapiens (Human), UniProt O43353). As to the kind of experiment: RIPK2 binding competition assay (TR-FRET, Tracer 199). For orientation: TR-FRET usually uses a lanthanide donor and a delayed reading to cut background.
Setting [3] is: read-out: RIPK2 IC50, RIPK2 binding competition assay.

Chain of GST-RIPK2 fusion protein (human RIPK2 amino acids 1-310) (O43353 1-310): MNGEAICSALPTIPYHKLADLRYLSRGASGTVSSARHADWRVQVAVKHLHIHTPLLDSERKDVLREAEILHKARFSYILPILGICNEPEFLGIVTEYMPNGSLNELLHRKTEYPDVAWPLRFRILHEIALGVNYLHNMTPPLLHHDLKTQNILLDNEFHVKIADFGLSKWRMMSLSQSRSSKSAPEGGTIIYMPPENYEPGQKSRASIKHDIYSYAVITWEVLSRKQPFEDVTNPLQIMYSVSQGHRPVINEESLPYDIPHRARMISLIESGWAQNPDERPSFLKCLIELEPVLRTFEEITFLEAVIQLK

Broadly, the IC50 is the concentration needed to halve the response being measured. Consider `COc1cc2ncc(-c3cc(F)nc(NC4CCCC[C@H]4O)c3)n2cc1S(=O)(=O)C(C)(C)C` (mixture of isomers) [Example 225, (1R,2R & 1S,2S)-2-((4-(6-(tert-butylsulfonyl)-7-methoxyimidazo[1,2-a]pyridin-3-yl)-6-fluoropyridin-2-yl)amino)cyclohexan-1-ol], for which the half-inhibitory concentration (IC50) lay in the range of 250 to 1000 nM in test [1] and 2.5 to 20 nM in test [2].
Regarding `Nc1nc(F)c(-c2cnc3ccccn23)cc1F` [Example 121, 5-(1,3a-diaza-3-indenyl)-3,6-difluoro-2-pyridylamine], the figures for the IC50 in test [1] and in test [2] (setting [3]) were more than 1000 nM and more than 20 nM, respectively.
Take `COc1cc2ncc(-c3cc(F)c(N)c(C)c3F)n2cc1S(=O)(=O)C(C)(C)C` [Example 111, 4-(6-(tert-butylsulfonyl)-7-methoxyimidazo[1,2-a]pyridin-3-yl)-3,6-difluoro-2-methylaniline]: the IC50 in test [1] fell in the range of 50 to 250 nM; in test [2], 1 to 2.5 nM.
Regarding `COc1cc2ncc(-c3cc(N)c(C)c(F)c3)n2cc1S(=O)(=O)C(C)(C)C` [Example 35, 5-(6-(tert-butylsulfonyl)-7-methoxyimidazo[1,2-a]pyridin-3-yl)-3-fluoro-2-methylaniline], the IC50 was more than 1000 nM in test [1] and more than 20 nM in test [2] (setting [3]).
With `COc1cc2ncc(-c3cc(F)nc(N4CCOCC4)c3)n2cc1S(=O)(=O)C(C)(C)C` [Example 211, 4-(4-(6-(tert-butylsulfonyl)-7-methoxyimidazo[1,2-a]pyridin-3-yl)-6-fluoropyridin-2-yl)morpholine], the IC50 fell in the range of 250 to 1000 nM in test [1] and 2.5 to 20 nM in test [2].
On the same counts, the results for `COc1cc2ncc(-c3ccc(N)c(OC(F)F)c3)n2cc1S(=O)(=O)C(C)(C)C` [Example 142, 4-(6-(tert-butylsulfonyl)-7-methoxyimidazo[1,2-a]pyridin-3-yl)-2-(difluoromethoxy)aniline] are 250 to 1000 nM and 2.5 to 20 nM.
Taken in the same sequence, the figures for `CC(C)(C)S(=O)(=O)c1ccn2ncc(-c3ccc(N)nc3F)c2c1` [Example 300, 5-(5-(tert-butylsulfonyl)pyrazolo[1,5-a]pyridin-3-yl)-6-fluoropyridin-2-amine] were more than 1000 nM and more than 20 nM.
Taken in the same sequence, the figures for `CCCS(=O)(=O)Nc1cc(-c2cnc3cc(OC)c(S(=O)(=O)C4CC4)cn23)cc(OC)c1OC` [Example 274, N-(5-(6-(cyclopropylsulfonyl)-7-methoxyimidazo[1,2-a]pyridin-3-yl)-2,3-dimethoxyphenyl)propane-1-sulfonamide] were 50 to 250 nM and less than 1 nM.
Take `COc1cc2ncc(-c3cc(NCCCO)c(=O)n(C)c3)n2cc1S(=O)(=O)C(C)(C)C` [Example 125, 5-(6-(tert-butylsulfonyl)-7-methoxyimidazo[1,2-a]pyridin-3-yl)-3-((3-hydroxypropyl)amino)-1-methylpyridin-2(1H)-one]: the values for the IC50 in test [1] and in test [2] were 50 to 250 nM and 2.5 to 20 nM, respectively.
`CCCS(=O)(=O)Nc1nc(-c2cnc3cc(OC)c(S(=O)(=O)C(C)(C)C)cn23)ccc1OC` [compound 314, N-(6-(6-(tert-butylsulfonyl)-7-methoxyimidazo[1,2-a]pyridin-3-yl)-3-methoxypyridin-2-yl)propane-1-sulfonamide]: the figures for the IC50 in test [1] and in test [2] (setting [3]) were more than 1000 nM and more than 20 nM, respectively.
On the same counts, the results for `CCCS(=O)(=O)Nc1nc(-c2cnc3cc(OC)c(S(=O)(=O)C(C)(C)C)cn23)ccc1CC` [Example 160, N-(6-(6-(tert-butylsulfonyl)-7-methoxyimidazo[1,2-a]pyridin-3-yl)-3-ethylpyridin-2-yl)propane-1-sulfonamide] are more than 1000 nM and more than 20 nM.
Taken in the same sequence, the figures for `COc1ccc(-c2cnn3ccc(S(=O)(=O)C(C)(C)C)cc23)cc1N` [Example 25, 5-(5-(tert-butylsulfonyl)pyrazolo [1,5-a]pyridin-3-yl)-2-methoxyaniline] were more than 1000 nM and more than 20 nM.
Regarding `COc1cc2ncc(-c3cn[nH]c3)n2cc1S(=O)(=O)C(C)(C)C` [Example 4, 6-(tert-butylsulfonyl)-7-methoxy-3-(1H-pyrazol-4-yl)imidazo[1,2-a]pyridine], the values for the concentration for half-maximal inhibition (IC50) in test [1] and in test [2] were 250 to 1000 nM and 2.5 to 20 nM, respectively.
Taken in the same sequence, the figures for `CCCS(=O)(=O)Nc1cc(-c2cnc3cc(OC)c(S(=O)(=O)C(C)(C)C)cn23)cc(F)c1OC` [Example 275, N-(5-(6-(tert-butylsulfonyl)-7-methoxyimidazo[1,2-a]pyridin-3-yl)-3-fluoro-2-methoxyphenyl)propane-1-sulfonamide] were less than 50 nM and less than 1 nM.
`CNc1ncc(-c2cnc3cc(OC)c(S(=O)(=O)C(C)(C)C)cn23)cc1F` [Example 94, 5-(6-(tert-butylsulfonyl)-7-methoxyimidazo[1,2-a]pyridin-3-yl)-3-fluoro-N-methylpyridin-2-amine]: the 50% inhibitory concentration (IC50) in test [1] was more than 1000 nM; in test [2] (setting [3]), more than 20 nM.
For `CCCS(=O)(=O)Nc1cc(-c2cnc3cc(OC)c(S(=O)(=O)C(C)(C)C)cn23)ccc1OC` [Example 130, N-{2-methoxy-5-[7-methoxy-6-(2-methylpropane-2-sulfonyl)imidazo[1,2-a]pyridin-3-yl]phenyl}propane-1-sulfonamide], the IC50 in test [1] was in the range of 250 to 1000 nM; in test [2], 1 to 2.5 nM.
On the same counts, the results for `COc1cn2ncc(-c3ccc(N)c(C#N)c3)c2cc1S(=O)(=O)C(C)(C)C` [Example 95, 2-amino-5-(5-(tert-butylsulfonyl)-6-methoxypyrazolo[1,5-a]pyridin-3-yl)benzonitrile] are 250 to 1000 nM and 2.5 to 20 nM.
With `COc1cc2ncc(-c3cnc(OC(F)F)c(N)c3)n2cc1S(=O)(=O)C(C)(C)C` [Example 50, 5-(6-(tert-butylsulfonyl)-7-methoxyimidazo[1,2-a]pyridin-3-yl)-2-(difluoromethoxy)pyridin-3-amine], the 50% inhibitory concentration (IC50) in test [1] is more than 1000 nM; in test [2] (setting [3]) it was more than 20 nM.
Turning to `COc1cc2ncc(-c3cc(F)nc(NCc4ccccc4)c3)n2cc1S(=O)(=O)C(C)(C)C` [Example 175, N-benzyl-4-(6-(tert-butylsulfonyl)-7-methoxyimidazo[1,2-a]pyridin-3-yl)-6-fluoropyridin-2-amine], the IC50 in test [1] was less than 50 nM; in test [2], less than 1 nM.
As to `CCCS(=O)(=O)Nc1ccc(F)c(-c2cnc3cc(OC)c(S(=O)(=O)C(C)(C)C)cn23)c1` [Example 287, N-(3-(6-(tert-butylsulfonyl)-7-methoxyimidazo[1,2-a]pyridin-3-yl)-4-fluorophenyl)propane-1-sulfonamide], the IC50 is more than 1000 nM in test [1] and more than 20 nM in test [2] (setting [3]).
`COc1cc2ncc(-c3cnn(CCO)c3)n2cc1S(=O)(=O)C(C)(C)C` [Example 324, 2-(4-(6-(tert-butylsulfonyl)-7-methoxyimidazo[1,2-a]pyridin-3-yl)-1H-pyrazol-1-yl)ethan-1-ol]: the IC50 is more than 1000 nM in test [1] and more than 20 nM in test [2] (setting [3]).
As to `COc1cc2ncc(-c3cc(F)c(N)c(N)c3F)n2cc1S(=O)(=O)C(C)(C)C` [Example 40, 4-(6-(tert-butylsulfonyl)-7-methoxyimidazo[1,2-a]pyridin-3-yl)-3,6-difluorobenzene-1,2-diamine], the values for the half-maximal inhibitory concentration (IC50) in test [1] and in test [2] were 250 to 1000 nM and 2.5 to 20 nM, respectively.
Turning to `COc1cc2ncc(-c3cnc(N)c(C)c3)n2cc1S(=O)(=O)C(C)(C)C` [Example 68, 5-(6-(tert-butylsulfonyl)-7-methoxyimidazo[1,2-a]pyridin-3-yl)-3-methylpyridin-2-amine], the IC50 in test [1] was more than 1000 nM; in test [2] (setting [3]) it was more than 20 nM.
Turning to `COc1cc2ncc(-c3ccc(OC(F)F)c(N)c3)n2cc1S(=O)(=O)C(C)(C)C` [Example 39, 5-(6-(tert-butylsulfonyl)-7-methoxyimidazo[1,2-a]pyridin-3-yl)-2-(difluoromethoxy)aniline], the half-maximal inhibitory concentration (IC50) in test [1] fell in the range of 50 to 250 nM; in test [2], 2.5 to 20 nM.
On the same counts, the results for `COc1cc2ncc(-c3cc(F)nc(N[C@@H]4CCCC[C@H]4O)c3)n2cc1S(=O)(=O)C(C)(C)C` (single isomer, unassigned) [Example 244, trans-(15,2S or 1R,2R)-2-({6-fluoro-4-[7-methoxy-6-(2-methylpropane-2-sulfonyl)imidazo[1,2-a]pyridin-3-yl]pyridin-2-yl}amino)cyclohexan-1-ol] are 250 to 1000 nM and 2.5 to 20 nM.
As for `COc1cc2ncc(-c3cc(N)c(F)c(OC)c3)n2cc1S(=O)(=O)C(C)(C)C` [Example 43, 5-(6-(tert-butylsulfonyl)-7-methoxyimidazo[1,2-a]pyridin-3-yl)-2-fluoro-3-methoxyaniline], the IC50 lay within 50 to 250 nM in test [1] and 2.5 to 20 nM in test [2].
Consider `COc1cc2ncc(-c3cc(C#N)c(N)nc3F)n2cc1S(=O)(=O)C(C)(C)C` [Example 107, 2-amino-5-(6-(tert-butylsulfonyl)-7-methoxyimidazo[1,2-a]pyridin-3-yl)-6-fluoronicotinonitrile], for which the 50% inhibitory concentration (IC50) was more than 1000 nM in test [1] and 2.5 to 20 nM in test [2].
On the same counts, the results for `CCCS(=O)(=O)Nc1cc(-c2cnc3cc(OC)c(S(=O)(=O)C(C)(C)C)cn23)ccc1F` [Example 291, N-(5-(6-(tert-butylsulfonyl)-7-methoxyimidazo[1,2-a]pyridin-3-yl)-2-fluorophenyl)propane-1-sulfonamide] are 250 to 1000 nM and 2.5 to 20 nM.
Turning to `COc1cc2ncc(-c3cc(F)nc(NCc4ccn(C)c(=O)c4)c3)n2cc1S(=O)(=O)C(C)(C)C` [Example 196, 4-(((4-(6-(tert-butylsulfonyl)-7-methoxyimidazo[1,2-a]pyridin-3-yl)-6-fluoropyridin-2-yl)amino)methyl)-1-methylpyridin-2(1H)-one], the IC50 in test [1] was less than 50 nM; in test [2], 1 to 2.5 nM.
On the same counts, the results for `CCCS(=O)(=O)Nc1cc(-c2cnc3cc(OC)c(S(=O)(=O)C4CC4)cn23)ccc1OC` [Example 288, N-(5-(6-(cyclopropylsulfonyl)-7-methoxyimidazo[1,2-a]pyridin-3-yl)-2-methoxyphenyl)propane-1-sulfonamide] are more than 1000 nM and 2.5 to 20 nM.
